US20250282749A1 (Tango Therapeutics, Inc., priority 2022, published 2025)

What was measured:
Assay type in all cases: cell-based
[1] = system: PRMT5 (SDMA) in HAP1 MTAP-deleted cell line; test: SDMA in-cell western assay, HAP1 MTAP-deleted cell line; details: for IC50 / IC90: Homo sapiens, SDMA in-cell western, HAP1 MTAP-deleted (MTAP-null) cell line; for Hap1 MTAP intact/deleted ratio: ratio of SDMA in-cell western IC50 in HAP1 MTAP-intact to IC50 in HAP1 MTAP-deleted cell line
Description: (§1) HAP1 MTAP-intact is a cell line in which endogenous levels of MTAP are expressed, and HAP1 MTAP-deleted is an MTAP-null cell line.

[2] = system: HAP1 MTAP-deleted cell line; test: viability assay for the MTAP-deleted cell line; details: Homo sapiens
[3] = system: PRMT5 (SDMA) in HAP1 MTAP-intact cell line; test: SDMA in-cell western assay, HAP1 MTAP-intact cell line; details: Homo sapiens, HAP1 MTAP-intact cell line (endogenous MTAP), read-out: Hap 1 MTAP intact IC50
Description: as §1

SMILES | IC50 [1] [µM] | IC90 [1] [µM] | Hap1 MTAP intact/deleted ratio [1] | IC50 [2] [µM] | IC50 [3] [µM]
Cc1cc(NC(=O)C(=O)N2C[C@@H](C)N(C(=O)C3(C(F)(F)F)CC3)C[C@@H]2c2cc(Cl)cc(Cl)c2)cnc1N [Compound 62, N-(6-amino-5-methylpyridin-3-yl)-2-((2S,5R)-2-(3,5-dichlorophenyl)-5-methyl-4-(1-(trifluoromethyl)cyclopropanecarbonyl)piperazin-1-yl)-2-oxoacetamide] | 0.005 to 0.05 | 0.075 to 0.125 | A (an IC50 ratio greater than or equal to 30 fold) | < 0.1 | > 0.05
COc1ncc(NC(=O)C(=O)N2C[C@@H](C)N(C(=O)C3(C(F)(F)F)CC3)C[C@@H]2c2ccc(F)c(Cl)c2)cc1C(N)=O [Compound 63, 5-(2-((2S,5R)-2-(3-chloro-4-fluorophenyl)-5-methyl-4-(1-(trifluoromethyl)cyclopropanecarbonyl)piperazin-1-yl)-2-oxoacetamido)-2-methoxynicotinamide] | 0.005 to 0.05 | 0.075 to 0.125 | A (an IC50 ratio greater than or equal to 30 fold) | 0.1 to 1 | > 0.05
Cc1cc(NC(=O)C(=O)N2C[C@@H](C)N(C(=O)C3(C)CC3)C[C@@H]2c2ccc(Cl)cc2)cnc1N [Compound 65] | < 0.005 | < 0.075 | C (an IC50 ratio of less than 15 fold) | < 0.1 | 0.005 to 0.05
Cc1cc(NC(=O)C(=O)N2CCN(C(=O)C3(C(F)(F)F)CC3)[C@H](C)[C@H]2c2ccc(F)c(F)c2)cnc1N [Compound 66] | 0.005 to 0.05 | > 0.125 | A (an IC50 ratio greater than or equal to 30 fold) | 0.1 to 1 | > 0.05
CCc1cc(NC(=O)C(=O)N2C[C@@H](C)N(C(=O)C(C)C)C[C@@H]2c2cccc(OCCN(C)C)c2)cnc1N [Compound 67, N-(6-amino-5-ethylpyridin-3-yl)-2-((2S,5R)-2-(3-(2-(dimethylamino)ethoxy)phenyl)-4-isobutyryl-5-methylpiperazin-1-yl)-2-oxoacetamide] | < 0.005 | < 0.075 | C (an IC50 ratio of less than 15 fold) | < 0.1 | 0.005 to 0.05
C[C@@H]1CN(C(=O)C(=O)Nc2cncc3cn[nH]c23)[C@@H](c2ccccc2)CN1C(=O)C(C)(C)CN(C)C [Compound 68, 2-((2S,5R)-4-(3-(dimethylamino)-2,2-dimethylpropanoyl)-5-methyl-2-phenylpiperazin-1-yl)-2-oxo-N-(1H-pyrazolo[4,3-c]pyridin-7-yl)acetamide] | 0.005 to 0.05 | 0.075 to 0.125 | A (an IC50 ratio greater than or equal to 30 fold) | 0.1 to 1 | > 0.05
COc1ncc(NC(=O)C(=O)N2C[C@@H](C)N(C(=O)C(C)(C)CN(C)C)C[C@@H]2c2ccccc2)cc1C(N)=O [Compound 69] | 0.005 to 0.05 | > 0.125 | A (an IC50 ratio greater than or equal to 30 fold) | 0.1 to 1 | > 0.05
CCc1cc(NC(=O)C(=O)N2C[C@@H](C)N(C(=O)C(C)C)C[C@@H]2c2ccc(C)cc2)cnc1N [Compound 71, N-(6-amino-5-ethylpyridin-3-yl)-2-((2S,5R)-4-isobutyryl-5-methyl-2-(p-tolyl)piperazin-1-yl)-2-oxoacetamide] | 0.005 to 0.05 | 0.075 to 0.125 | B (an IC50 ratio greater than or equal to 15 fold but lower than 30 fold) | < 0.1 | > 0.05
C[C@@H]1CN(C(=O)C(=O)Nc2cnc(N)c(C3COC3)c2)[C@@H](c2ccc(F)cc2)CN1C(=O)C1(C(F)(F)F)CC1 [Compound 72, N-(6-amino-5-(oxetan-3-yl)pyridin-3-yl)-2-((2S,5R)-2-(4-fluorophenyl)-5-methyl-4-(1-(trifluoromethyl)cyclopropanecarbonyl)piperazin-1-yl)-2-oxoacetamide] | 0.005 to 0.05 | 0.075 to 0.125 | A (an IC50 ratio greater than or equal to 30 fold) | < 0.1 | > 0.05
CCc1cc(NC(=O)C(=O)N2C[C@H](C)N(C(=O)CC3CC3)C[C@H]2c2ccc(F)cc2)cnc1N [Compound 73, N-(6-amino-5-ethyl-3-pyridyl)-2-[(2R,5S)-4-(2-cyclopropylacetyl)-2-(4-fluorophenyl)-5-methyl-piperazin-1-yl]-2-oxo-acetamide] | 0.005 to 0.05 | 0.075 to 0.125 | B (an IC50 ratio greater than or equal to 15 fold but lower than 30 fold) | < 0.1 | > 0.05
Cc1cc(NC(=O)C(=O)N2C[C@@H](C)N(C(=O)C(C)C)C[C@@H]2c2ccc(F)c(Cl)c2)cnc1N [Compound 74, N-(6-amino-5-methylpyridin-3-yl)-2-((2S,5R)-2-(3-chloro-4-fluorophenyl)-4-isobutyryl-5-methylpiperazin-1-yl)-2-oxoacetamide] | 0.005 to 0.05 | 0.075 to 0.125 | A (an IC50 ratio greater than or equal to 30 fold) | 0.1 to 1 | > 0.05
CC(C)C(=O)N1C[C@H](c2ccc(F)c(F)c2)N(C(=O)C(=O)Nc2cnc(N)c(C3CC3)c2)C[C@H]1C [Compound 75, N-(6-amino-5-cyclopropylpyridin-3-yl)-2-((5R)-2-(3,4-difluorophenyl)-4-isobutyryl-5-methylpiperazin-1-yl)-2-oxoacetamide] | 0.005 to 0.05 | > 0.125 | C (an IC50 ratio of less than 15 fold) | < 0.1 | > 0.05
Cc1cc(NC(=O)C(=O)N2C[C@@H](C)N(C(=O)C3(C(F)(F)F)CC3)C[C@@H]2c2ccc(N3CCN(C)CC3)cc2)cnc1N [Compound 77, N-(6-amino-5-methylpyridin-3-yl)-2-((2S,5R)-5-methyl-2-(4-(4-methylpiperazin-1-yl)phenyl)-4-(1-(trifluoromethyl)cyclopropanecarbonyl)piperazin-1-yl)-2-oxoacetamide] | < 0.005 | < 0.075 | B (an IC50 ratio greater than or equal to 15 fold but lower than 30 fold) | < 0.1 | 0.005 to 0.05
Cc1cc(NC(=O)C(=O)N2C[C@@H](C)N(C(=O)C3(C(F)(F)F)CC3)C[C@@H]2c2ccccc2)cnc1N [Compound 78, N-(6-amino-5-methylpyridin-3-yl)-2-((2S,5R)-5-methyl-2-phenyl-4-(1-(trifluoromethyl)cyclopropanecarbonyl)piperazin-1-yl)-2-oxoacetamide] | 0.005 to 0.05 | > 0.125 | B (an IC50 ratio greater than or equal to 15 fold but lower than 30 fold) | < 0.1 | > 0.05
C[C@@H]1CN(C(=O)C(=O)Nc2cnc(N)c3cn[nH]c23)[C@@H](c2ccc(F)cc2)CN1C(=O)C1(C(F)(F)F)CC1 [Compound 79] | < 0.005 | < 0.075 | C (an IC50 ratio of less than 15 fold) | < 0.1 | 0.005 to 0.05
